Data on eight molecules can be found in ChEMBL document CHEMBL1201862, “PubChem BioAssay data set” (2004).

Where a name gives a salt, the structure may show the parent alone. Active and inactive are the calls of the source.

What is called EC50 is the concentration that produces a half-maximal response. What is called IC50 is the point on the concentration scale where inhibition reaches its midpoint. For orientation: AC50 means the concentration at which the activity in the assay is half-maximal. Broadly, the CC50 is the concentration that lowers cell viability or growth by half.

In test [1] the target is T1, Zinc finger protein mex-5 (Caenorhabditis elegans, UniProt Q9XUB2).
T1 sequence (Q9XUB2 whole entry): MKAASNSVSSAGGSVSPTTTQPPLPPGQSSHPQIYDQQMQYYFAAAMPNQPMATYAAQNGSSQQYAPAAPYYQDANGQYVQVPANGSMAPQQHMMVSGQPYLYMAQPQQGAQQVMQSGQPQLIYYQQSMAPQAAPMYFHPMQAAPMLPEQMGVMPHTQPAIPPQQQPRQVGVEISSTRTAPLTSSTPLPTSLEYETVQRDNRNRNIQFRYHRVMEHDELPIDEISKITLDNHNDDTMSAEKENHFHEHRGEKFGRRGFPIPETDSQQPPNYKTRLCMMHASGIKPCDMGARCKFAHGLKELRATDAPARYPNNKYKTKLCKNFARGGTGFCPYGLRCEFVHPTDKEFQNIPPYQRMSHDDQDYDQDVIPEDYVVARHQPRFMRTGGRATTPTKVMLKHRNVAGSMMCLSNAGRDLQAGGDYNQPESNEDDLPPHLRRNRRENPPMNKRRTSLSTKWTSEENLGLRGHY
Briefly: MEX-5/TCR-2 RNA interaction inhibitors, dose response, biochemical, C. elegans, fluorescence polarization (AID 1960).

Another test concerns the target Genome polyprotein (dengue virus type 2, UniProt P29990). As to the kind of experiment: Dengue-2 NS5 methyltransferase inhibitors, primary screen, biochemical, confirmation dose response (AID 588689). The format is functional.
Test [2] has as its target T2, Apoptotic protease-activating factor 1 (Homo sapiens, UniProt O14727).
T2 sequence (O14727 whole entry): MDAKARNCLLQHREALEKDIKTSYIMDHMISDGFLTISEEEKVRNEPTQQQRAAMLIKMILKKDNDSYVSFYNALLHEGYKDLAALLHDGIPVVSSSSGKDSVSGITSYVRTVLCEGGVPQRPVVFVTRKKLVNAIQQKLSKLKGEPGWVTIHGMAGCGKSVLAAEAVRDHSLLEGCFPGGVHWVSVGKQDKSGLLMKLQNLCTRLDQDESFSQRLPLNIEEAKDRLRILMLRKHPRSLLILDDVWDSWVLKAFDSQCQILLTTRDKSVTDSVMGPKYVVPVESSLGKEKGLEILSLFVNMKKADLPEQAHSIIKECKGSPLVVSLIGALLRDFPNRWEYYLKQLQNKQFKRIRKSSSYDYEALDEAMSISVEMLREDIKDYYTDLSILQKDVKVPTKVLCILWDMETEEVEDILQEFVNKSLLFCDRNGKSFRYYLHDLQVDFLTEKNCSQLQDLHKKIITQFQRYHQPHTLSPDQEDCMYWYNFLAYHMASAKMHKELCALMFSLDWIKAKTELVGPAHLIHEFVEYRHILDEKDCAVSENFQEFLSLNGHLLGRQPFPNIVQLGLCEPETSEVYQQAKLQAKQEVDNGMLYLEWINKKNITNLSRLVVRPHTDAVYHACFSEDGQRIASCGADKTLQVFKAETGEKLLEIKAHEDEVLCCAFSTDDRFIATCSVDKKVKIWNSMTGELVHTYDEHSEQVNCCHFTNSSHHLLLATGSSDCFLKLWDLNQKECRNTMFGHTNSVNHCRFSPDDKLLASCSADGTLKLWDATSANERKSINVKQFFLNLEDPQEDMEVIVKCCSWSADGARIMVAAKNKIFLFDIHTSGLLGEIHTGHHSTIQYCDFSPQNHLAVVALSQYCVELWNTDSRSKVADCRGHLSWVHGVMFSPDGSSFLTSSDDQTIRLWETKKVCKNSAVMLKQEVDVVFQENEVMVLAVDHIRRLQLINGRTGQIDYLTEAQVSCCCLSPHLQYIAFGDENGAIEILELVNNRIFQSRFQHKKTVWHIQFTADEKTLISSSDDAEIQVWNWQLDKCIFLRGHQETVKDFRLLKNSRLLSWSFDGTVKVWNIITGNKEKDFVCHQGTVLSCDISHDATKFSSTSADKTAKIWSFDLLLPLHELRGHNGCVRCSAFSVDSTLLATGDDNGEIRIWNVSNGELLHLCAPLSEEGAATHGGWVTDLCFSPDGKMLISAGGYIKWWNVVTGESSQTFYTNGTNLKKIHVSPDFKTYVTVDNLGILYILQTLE
In kind it is functional.

The target in test [3] is T3, RNA-binding protein pos-1 (Caenorhabditis elegans, UniProt G5EF15).
T3 sequence (G5EF15 whole entry): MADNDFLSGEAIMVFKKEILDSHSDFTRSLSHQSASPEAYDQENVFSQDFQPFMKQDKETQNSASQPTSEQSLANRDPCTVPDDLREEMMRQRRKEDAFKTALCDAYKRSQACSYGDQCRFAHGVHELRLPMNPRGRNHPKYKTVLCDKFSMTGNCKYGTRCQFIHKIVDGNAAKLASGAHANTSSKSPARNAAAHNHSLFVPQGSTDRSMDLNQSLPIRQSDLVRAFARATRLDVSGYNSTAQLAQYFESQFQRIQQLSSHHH
As to the kind of experiment: inhibitors of POS-1/mex-3 RNA binding, dose response, biochemical, fluorescence polarization (AID 1964).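 Further: purified POS-1 fused to maltose binding protein made in E. coli; potency of compounds blocking POS-1 binding to fluorescent RNA.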

For test [4], the target named is Glutathione-S-transferase (Schistosoma japonicum, UniProt Q26513). Briefly: biotin-GST/anti-GST TR-FRET signal inhibitors, dose response, artefact control for Vif-APOBEC3G degradation inhibitor project, biochemical (AID 1117362). The format is functional. Background: Time-resolved FRET reads energy transfer from a long-lived donor to a nearby acceptor.
Sequence of Glutathione-S-transferase (Q26513 whole entry): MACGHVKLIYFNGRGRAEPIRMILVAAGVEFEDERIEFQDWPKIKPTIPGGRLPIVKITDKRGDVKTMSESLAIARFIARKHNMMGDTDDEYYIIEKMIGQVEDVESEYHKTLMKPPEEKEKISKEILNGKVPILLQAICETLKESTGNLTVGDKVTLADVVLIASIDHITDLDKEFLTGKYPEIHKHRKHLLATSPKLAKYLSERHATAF
Test [5] in a line: A549 cell cytotoxicity, dose response, CellTiter-Glo luminescence, dry powder, set 17 (AID 1117284). In kind it is functional, cell-based. Background: Cellular ATP, detected with luciferase, serves as a proxy for viable cell number.
Test [6] is described as follows: A549 cell cytotoxicity, dose response, cytotoxicity control, 24 h, CellTiter-Glo luminescence, cherry-picks (AID 1053115). Conditions: A549, 24 h. In kind it is functional, cell-based.
Test [7] can be described thus: Vero cell cytotoxicity, dose response, cytotoxicity control for Vif-APOBEC3G degradation inhibitor project, Vero cells (AID 1117358). Particulars: Human immunodeficiency virus 1, Vero. The format is functional.
The target of test [8] is T4, Low molecular weight phosphotyrosine protein phosphatase (Homo sapiens, UniProt P24666).
T4 sequence (P24666 whole entry): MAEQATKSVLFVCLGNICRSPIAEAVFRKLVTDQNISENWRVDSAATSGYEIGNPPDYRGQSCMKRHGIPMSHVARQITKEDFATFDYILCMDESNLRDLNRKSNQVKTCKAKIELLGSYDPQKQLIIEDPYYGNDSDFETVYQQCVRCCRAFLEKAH
Briefly: LMPTP phosphatase inhibitors, colorimetric pNPP readout, dose response, orthogonal assay, biochemical, absorbance, pNPP substrate, LMPTP-A isoform, set 2 (AID 743308). In kind it is functional.

The target in test [9] is T4, Low molecular weight phosphotyrosine protein phosphatase. Briefly: LMPTP phosphatase inhibitors, dose response, biochemical, OMFP substrate, fluorescence intensity, set 2 (AID 743307). In kind it is functional.
A short description of test [10]: cells. In kind it is functional, cell-based.
Test [11] is described as follows: NIH-3T3 fibroblast cytotoxicity, dose response, cytotoxicity control, cell-based, fluorescence, Alamar Blue, secondary assay (AID 2327).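 Further: NIH-3T3 mouse fibroblasts cultured with fluconazole at 8 µg/mL.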 The format is functional. Background: Resazurin is reduced to fluorescent resorufin, in cell work by metabolically active cells.
Test [12] deals with ATP-dependent molecular chaperone HSP82 (Candida albicans (strain WO-1) (Yeast), UniProt C4YTQ8). As to the kind of experiment: loss of DOC-induced GRE-beta-galactosidase reporter signal, dose response, Hsp90 inhibitor project, S. cerevisiae, luminescence (AID 2400).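 Further: beta-galactosidase luminescence from glucocorticoid response element reporter as proxy for Hsp90 function; inhibitor potency where signal loss means Hsp90 inhibition.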 The format is functional, cell-based.
Sequence of ATP-dependent molecular chaperone HSP82 (C4YTQ8 whole entry): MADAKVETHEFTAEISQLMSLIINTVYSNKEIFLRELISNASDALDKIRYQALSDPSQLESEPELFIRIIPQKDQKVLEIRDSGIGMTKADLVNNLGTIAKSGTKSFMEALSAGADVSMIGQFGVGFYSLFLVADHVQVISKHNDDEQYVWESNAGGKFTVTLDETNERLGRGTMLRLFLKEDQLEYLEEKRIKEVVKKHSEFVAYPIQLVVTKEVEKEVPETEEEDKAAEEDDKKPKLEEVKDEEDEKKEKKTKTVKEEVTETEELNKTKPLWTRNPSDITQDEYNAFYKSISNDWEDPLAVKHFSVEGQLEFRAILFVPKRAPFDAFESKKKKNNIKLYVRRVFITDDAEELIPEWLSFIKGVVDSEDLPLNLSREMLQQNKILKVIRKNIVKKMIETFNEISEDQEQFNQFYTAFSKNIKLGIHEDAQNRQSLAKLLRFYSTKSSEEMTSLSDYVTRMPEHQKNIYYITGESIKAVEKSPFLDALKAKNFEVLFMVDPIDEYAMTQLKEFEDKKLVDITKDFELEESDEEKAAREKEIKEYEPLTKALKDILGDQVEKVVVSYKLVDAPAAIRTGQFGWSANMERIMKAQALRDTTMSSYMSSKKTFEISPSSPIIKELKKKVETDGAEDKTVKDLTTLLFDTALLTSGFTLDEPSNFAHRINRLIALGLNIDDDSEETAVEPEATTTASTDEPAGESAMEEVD
Test [13] is described as follows: HeLa 2N DNA content increase, dose response, cell-based, IC50 (AID 1117349). In kind it is functional.
A short description of test [14]: cells. The format is functional, cell-based. This is another data set of the same source.
Test [15] concerns the target Serine/threonine-protein phosphatase (Candida dubliniensis (strain CD36 / CBS 7987 / NCPF 3949 / NRRLY-17841) (Yeast), UniProt B9W6M3). As to the kind of experiment: calcineurin pathway inhibitors in yeast reporter, dose response, S. cerevisiae, CDRE-lacZ, luminescence, secondary (AID 2388).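 Further: yeast reporter cells carrying a calcineurin-responsive lacZ construct stimulated with calcium chloride; luminescent beta-galactosidase reporter signal in whole cells rather than isolated phosphatase activity; potency for inhibition where a drop in reporter signal means calcineurin blockade.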 In kind it is functional, cell-based.
Test [16] can be described thus: HeLa 4N DNA content increase, dose response, cell-based, IC50 (AID 1117351). In kind it is functional.
Test [17] in a line: C. albicans growth with fluconazole, confirmation, fluorescence, retest (AID 2467). The format is functional, cell-based.
Test [18] in a line: Dose-response inhibition of insulin secretion in a rat insulinoma line at 5 mM glucose (AID 1117331). In kind it is functional, cell-based. Conditions: INS-1E.
Test [19] is described as follows: Jurkat T cell cytotoxicity, dose response, cytotoxicity control for P. falciparum gametocyte viability project, luminescence (AID 1117277).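 Further: potency reflects loss of cellular ATP meaning fewer viable cells.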 The format is functional, cell-based.
Test [20] can be described thus: P. falciparum late gametocyte killing, dose response, luminescence (AID 1117278).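 Further: gametocytes exposed to compound for 24 hours.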 The format is functional, cell-based.
The nature of test [21]: HEK293T cell cytotoxicity, dose response, cytotoxicity control, plate reader, dry powder, set 10 (AID 743315). The format is functional, cell-based. Particulars: HEK293.

Sequence of Genome polyprotein (P29990 2492-3391 limits assumed): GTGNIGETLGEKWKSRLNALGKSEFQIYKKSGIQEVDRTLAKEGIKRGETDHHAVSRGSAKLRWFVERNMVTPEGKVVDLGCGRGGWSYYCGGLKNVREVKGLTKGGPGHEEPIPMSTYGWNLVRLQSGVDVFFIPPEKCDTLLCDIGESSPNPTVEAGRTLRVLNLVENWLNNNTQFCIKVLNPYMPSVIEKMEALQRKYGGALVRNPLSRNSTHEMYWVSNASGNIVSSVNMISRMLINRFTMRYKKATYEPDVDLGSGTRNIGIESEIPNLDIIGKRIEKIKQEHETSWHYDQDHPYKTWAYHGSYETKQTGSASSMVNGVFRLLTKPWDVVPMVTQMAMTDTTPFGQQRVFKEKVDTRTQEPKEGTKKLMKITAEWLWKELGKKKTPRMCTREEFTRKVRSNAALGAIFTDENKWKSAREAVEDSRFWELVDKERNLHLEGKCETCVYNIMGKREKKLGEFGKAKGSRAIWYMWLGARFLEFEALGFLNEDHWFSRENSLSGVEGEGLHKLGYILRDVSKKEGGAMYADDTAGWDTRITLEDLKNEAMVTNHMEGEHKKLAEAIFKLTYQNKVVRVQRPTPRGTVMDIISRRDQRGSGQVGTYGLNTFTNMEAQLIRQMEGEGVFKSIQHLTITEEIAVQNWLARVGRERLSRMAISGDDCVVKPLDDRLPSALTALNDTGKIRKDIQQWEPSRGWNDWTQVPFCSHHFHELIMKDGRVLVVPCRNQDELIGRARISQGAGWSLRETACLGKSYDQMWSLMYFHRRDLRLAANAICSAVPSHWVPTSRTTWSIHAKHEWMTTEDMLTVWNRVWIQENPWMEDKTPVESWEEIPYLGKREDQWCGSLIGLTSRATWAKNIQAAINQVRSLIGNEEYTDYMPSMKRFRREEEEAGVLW
Sequence of Serine/threonine-protein phosphatase (B9W6M3 whole entry): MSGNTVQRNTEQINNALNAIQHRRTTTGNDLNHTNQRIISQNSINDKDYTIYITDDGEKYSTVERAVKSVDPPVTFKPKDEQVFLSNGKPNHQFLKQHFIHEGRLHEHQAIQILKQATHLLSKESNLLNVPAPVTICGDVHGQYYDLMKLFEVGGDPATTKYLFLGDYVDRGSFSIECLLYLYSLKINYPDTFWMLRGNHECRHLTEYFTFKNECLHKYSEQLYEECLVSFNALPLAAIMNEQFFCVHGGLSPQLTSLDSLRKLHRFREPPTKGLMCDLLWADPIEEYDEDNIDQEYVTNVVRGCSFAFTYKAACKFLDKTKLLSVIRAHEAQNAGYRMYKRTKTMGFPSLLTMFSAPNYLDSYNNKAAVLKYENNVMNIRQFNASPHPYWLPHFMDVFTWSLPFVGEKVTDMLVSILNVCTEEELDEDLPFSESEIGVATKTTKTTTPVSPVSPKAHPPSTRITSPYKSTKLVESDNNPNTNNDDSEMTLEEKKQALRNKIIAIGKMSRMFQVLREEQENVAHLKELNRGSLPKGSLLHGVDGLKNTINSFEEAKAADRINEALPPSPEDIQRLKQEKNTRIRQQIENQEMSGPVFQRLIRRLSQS

For `COC(=O)CCC(=O)OC1(C)C(=O)C2=CN(CCCOC(C)C)C(c3ccc(OC)cc3)=CC2=C(Br)C1=O` (configuration not stated), the EC50 in [1] was 42 µM (active); in test [3] it was 46.9 µM (active). The IC50 on Genome polyprotein was 19.8 µM (active); in test [2], 15.4 µM (active); in test [4] it was > 100 µM (active).
In the case of `C[C@H]1CN([C@@H](C)CO)S(=O)(=O)c2ccc(C#CC(C)(C)O)cc2O[C@H]1CN(C)Cc1ccc(-c2ccccc2)cc1`, the results for the concentration at half-maximal activity (AC50) in test [5] and in test [6] were 20.4 µM (active) and > 60 µM (inactive), respectively.
For the molecule `Oc1ccccc1-c1cc(C(F)(F)C(F)F)[nH]n1`, the CC50 in test [7] is > 40 µM (active).
For the molecule `c1ccc(-c2nc(NCCN3CCCC3)c3ccccc3n2)cc1`, the IC50 in [8] and in test [9] was > 80 µM (inactive) in each case.
As for `CC(=O)N(O)CCCCCNC(=O)CCC(=O)N(O)CCCCCNC(=O)CCC(=O)N(O)CCCCCN` [DEFEROXAMINE MESYLATE], the concentration giving a half-maximal response (EC50) in the test “cells [10]” was > 350 µM (not active); in [11], > 150 µM (inactive); in [12] it was > 150 µM (inactive); in the test “cells [14]” it was 225 µM (active); in test [15], > 180 µM (inactive); in test [17], 0.578 µM (active). Further, the IC50 in test [13] and in test [16] was > 10 µM (inactive) throughout.
On to `CN1CCC(N(Cc2cccs2)c2ccccc2)CC1` [THENALIDINE], for which the IC50 in test [18] was 20.4 µM (inactive).
Consider `CCOC(=O)c1c(N)c2cc([N+](=O)[O-])cnc2n1C`, for which the IC50 was > 83.4 µM (inactive) in [19] and > 109 µM (inactive) in test [20].
On to `CC(C)c1ccc(OCCn2c(=S)[nH]c3ccccc32)cc1`, for which, in test [21], the AC50 is 27.3 µM (active).
